From ChEMBL document CHEMBL3243984, “Methotrexate analogues. 11. Unambiguous chemical synthesis and in vitro biological evaluation of alpha- and gamma-monoesters as potential prodrugs” (J Med Chem, 1978)
One block for each molecule: values may come before it.

What was measured:
[1] = test system: CCRF-CEM; assay: Growth inhibition of human CCRF-CEM cells; type: functional
[2] = target: T1, Dihydrofolate reductase (Oryctolagus cuniculus) (UniProt C1JLF0); assay: Inhibition of rabbit liver dihydrofolate reductase using [3H]-folic acid after 10 mins by scintillation counting
T1 sequence (whole entry): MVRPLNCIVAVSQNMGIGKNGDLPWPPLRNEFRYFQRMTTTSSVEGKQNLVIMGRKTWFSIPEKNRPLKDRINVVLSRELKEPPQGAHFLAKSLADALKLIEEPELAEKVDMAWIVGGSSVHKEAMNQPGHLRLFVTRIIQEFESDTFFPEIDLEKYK

[3] = test system: Serum; assay: Retention time in human serum at 150 mg after 72 hrs by HPLC analysis; type: ADME, cell-free
[4] = test system: Serum; assay: Drug metabolism in rat serum assessed as MBMTX level at 0.006 g after 48 hrs by TLC analysis; type: ADME, cell-free
[5] = Drug metabolism in monkey serum assessed as parent compound level at 0.006 g after 6 hrs by TLC analysis; type: ADME, cell-free, Macaca mulatta; conditions: rhesus monkey, read-out: Drug metabolism
[6] = Drug metabolism in human serum assessed as parent compound level at 0.006 g after 24 hrs by TLC analysis; type: ADME, cell-free; conditions: read-out: Drug metabolism
[7] = test system: Serum; assay: Drug metabolism in human serum assessed as MTX alpha-monobutyl ester level at 150 mg after 72 hrs by HPLC analysis; type: ADME, cell-free
[8] = test system: Serum; assay: Drug metabolism in rat serum assessed as MBMTX level at 0.006 g after 24 hrs by TLC analysis; type: ADME, cell-free
[9] = Drug metabolism in monkey serum assessed as parent compound level at 0.006 g after 2 hrs by TLC analysis; type: ADME, cell-free, Macaca mulatta; conditions: rhesus monkey, read-out: Drug metabolism
[10] = test system: Serum; assay: Drug metabolism in rat serum assessed as MBMTX level at 0.006 g after 6 hrs by TLC analysis; type: ADME, cell-free
[11] = test system: Serum; assay: Drug metabolism in mouse serum assessed as parent compound level at 0.006 g after 6 hrs by TLC analysis; type: ADME, cell-free
[12] = test system: Serum; assay: Drug metabolism in rat serum assessed as parent compound level at 0.006 g after 6 hrs by TLC analysis; type: ADME, cell-free
[13] = Drug metabolism in mouse serum assessed as parent compound level at 0.006 g after 24 hrs by TLC analysis; type: ADME, cell-free; conditions: read-out: Drug metabolism
[14] = test system: Serum; assay: Drug metabolism in rat serum assessed as DBMTX level at 0.006 g after 48 hrs by TLC analysis; type: ADME, cell-free
[15] = test system: Serum; assay: Drug metabolism in rat serum assessed as DBMTX level at 0.006 g after 6 hrs by TLC analysis; type: ADME, cell-free
[16] = Drug metabolism in human serum assessed as parent compound level at 0.006 g after 6 hrs by TLC analysis; type: ADME, cell-free; conditions: read-out: Drug metabolism
[17] = Drug metabolism in mouse serum assessed as parent compound level at 0.006 g after 48 hrs by TLC analysis; type: ADME, cell-free; conditions: read-out: Drug metabolism
[18] = Drug metabolism in monkey serum assessed as parent compound level at 0.006 g after 48 hrs by TLC analysis; type: ADME, cell-free, Macaca mulatta; conditions: rhesus monkey, read-out: Drug metabolism
[19] = test system: Serum; assay: Drug metabolism in human serum assessed as MTX gamma-monobutyl ester level at 150 mg after 72 hrs by HPLC analysis; type: ADME, cell-free
[20] = test system: Serum; assay: Drug metabolism in rat serum assessed as MBMTX level at 0.006 g after 2 hrs by TLC analysis; type: ADME, cell-free
[21] = test system: Serum; assay: Drug metabolism in rat serum assessed as parent compound level at 0.006 g after 48 hrs by TLC analysis; type: ADME, cell-free
[22] = test system: Serum; assay: Drug metabolism in rat serum assessed as DBMTX level at 0.006 g after 24 hrs by TLC analysis; type: ADME, cell-free
[23] = Drug metabolism in human serum assessed as parent compound level at 0.006 g after 48 hrs by TLC analysis; type: ADME, cell-free; conditions: read-out: Drug metabolism
[24] = Drug metabolism in human serum assessed as parent compound level at 0.006 g after 2 hrs by TLC analysis; type: ADME, cell-free; conditions: read-out: Drug metabolism
[25] = test system: Serum; assay: Drug metabolism in rat serum assessed as parent compound level at 0.006 g after 2 hrs by TLC analysis; type: ADME, cell-free
[26] = test system: Serum; assay: Drug metabolism in mouse serum assessed as parent compound level at 0.006 g after 2 hrs by TLC analysis; type: ADME, cell-free
[27] = test system: Serum; assay: Drug metabolism in rat serum assessed as parent compound level at 0.006 g after 24 hrs by TLC analysis; type: ADME, cell-free
[28] = test system: Serum; assay: Drug metabolism in rat serum assessed as DBMTX level at 0.006 g after 2 hrs by TLC analysis; type: ADME, cell-free
[29] = Drug metabolism in monkey serum assessed as parent compound level at 0.006 g after 24 hrs by TLC analysis; type: ADME, cell-free, Macaca mulatta; conditions: rhesus monkey, read-out: Drug metabolism

Structure (SMILES): COC(=O)CC[C@H](NC(=O)c1ccc(N(C)Cc2cnc3nc(N)nc(N)c3n2)cc1)C(=O)OC
- ID50 [1]: 0.4 ×10⁻⁶ mol/L

Structure (SMILES): COC(=O)CC[C@H](NC(=O)c1ccc(N(C)Cc2cnc3nc(N)nc(N)c3n2)cc1)C(=O)O
- ID50 [1]: 0.43 ×10⁻⁶ mol/L

- ID50 [2]: 1.7 ×10⁻⁸ mol/L
- Retention_time [3]: 3.2 min
Structure (SMILES): CCCCOC(=O)CC[C@H](NC(=O)c1ccc(N(C)Cc2cnc3nc(N)nc(N)c3n2)cc1)C(=O)O
- ID50 [1]: 0.76 ×10⁻⁶ mol/L

Structure (SMILES): CCOC(=O)[C@H](CCC(=O)O)NC(=O)c1ccc(N(C)Cc2cnc3nc(N)nc(N)c3n2)cc1
- ID50 [1]: 6.2 ×10⁻⁶ mol/L

Structure (SMILES): CCOC(=O)CC[C@H](NC(=O)c1ccc(N(C)Cc2cnc3nc(N)nc(N)c3n2)cc1)C(=O)OCC
- ID50 [1]: 0.012 ×10⁻⁶ mol/L

- Drug metabolism [4]: metabolite_detected
- remaining at 6 h [5]: < 1%
- ID50 [2]: 1.4 ×10⁻⁷ mol/L
- remaining at 24 h [6]: 1%
- Drug metabolism [7]: metabolite_detected
- Drug metabolism [8]: metabolite_detected
- remaining at 2 h [9]: < 1%
- Drug metabolism [10]: metabolite_detected
- Drug metabolism [11]: 46%
- Drug metabolism [12]: metabolite_detected
- remaining at 24 h [13]: 89%
- Drug metabolism [14]: metabolite_detected
- Drug metabolism [15]: metabolite_detected
- remaining at 6 h [16]: < 1%
- remaining at 48 h [17]: 93%
- remaining at 48 h [18]: 2%
- Drug metabolism [19]: metabolite_detected
- Drug metabolism [20]: metabolite_detected
- Drug metabolism [21]: metabolite_detected
- Drug metabolism [22]: metabolite_detected
- remaining at 48 h [23]: < 1%
- remaining at 2 h [24]: < 1%
- Drug metabolism [25]: metabolite_detected
- Drug metabolism [26]: 43%
- Drug metabolism [27]: metabolite_detected
- Drug metabolism [28]: metabolite_detected
- remaining at 24 h [29]: < 1%
Structure (SMILES): CCCCOC(=O)CC[C@H](NC(=O)c1ccc(N(C)Cc2cnc3nc(N)nc(N)c3n2)cc1)C(=O)OCCCC
- ID50 [1]: 0.057 ×10⁻⁶ mol/L

- ID50 [2]: 9 ×10⁻⁹ mol/L
- Retention_time [3]: 2 min
Structure (SMILES): CN(Cc1cnc2nc(N)nc(N)c2n1)c1ccc(C(=O)N[C@@H](CCC(=O)O)C(=O)O)cc1 [METHOTREXATE]
- ID50 [1]: 0.006 ×10⁻⁶ mol/L

- ID50 [2]: 1.7 ×10⁻⁸ mol/L
- Retention_time [3]: 5.1 min
Structure (SMILES): CCCCOC(=O)[C@H](CCC(=O)O)NC(=O)c1ccc(N(C)Cc2cnc3nc(N)nc(N)c3n2)cc1
- ID50 [1]: 2 ×10⁻⁶ mol/L

Structure (SMILES): CCOC(=O)CC[C@H](NC(=O)c1ccc(N(C)Cc2cnc3nc(N)nc(N)c3n2)cc1)C(=O)O
- ID50 [1]: 0.58 ×10⁻⁶ mol/L
